Each structure is given as a SMILES string.

The test system of the assay is Tobacco Cutworm (Spodoptera litura) Larvae. The experiment in a line: Test against tobacco cutworm (Spodoptera litura) larvae, leaf dip. The format is in vivo. As to conditions: active compound concentration of 100 ppm, third instar larvae, after 7 days; for pest or weed control at 100 ppm: Spodoptera litura, foliar, 168 h, read-out: insecticidal activity. The method, then: Solvent: 3 parts by weight of dimethylformamide
Emulsifier: 1 part by weight of polyoxyethylene alkyl phenyl ether
Leaves of sweet potato were immersed in the test solution at the appropriate concentration, and the leaves were dried in air. The leaves were then placed in a petri dish having a diameter of 9 cm, and ten Spodoptera litura at third instar larvae were released therein. The petri dishes were placed in a temperature-controlled chamber at 25° C. After 2 days and 4 days more sweet potato leaves were added. After 7 days, the number of dead larvae was counted to calculate the insecticidal activity. An insecticidal activity of 100% means that all larvae were killed, whereas an insecticidal activity of 0% means that no larva was killed.

Turning to `CCc1cc(C(F)(C(F)(F)F)C(F)(F)F)cc(C)c1NC(=O)c1ccc(CNC(=O)CC2CC2)c(C)c1` [Compound 5-101], the insecticidal activity came to 100%. On the same count and under the same terms, next, `CCC(=O)NCc1ccc(C(=O)Nc2c(C)cc(C(F)(C(F)(F)F)C(F)(F)F)cc2C)cc1` [Compound 5-3]: 100%.

Compound `CCc1cc(C(F)(C(F)(F)F)C(F)(F)F)cc(C)c1NC(=O)c1ccc(CNC(=O)CC2CC2)cc1Cl` [Compound 5-67] gave an insecticidal activity of 100%.

`CCC(=O)NCc1ccc(C(=O)Nc2c(C)cc(C(F)(C(F)(F)F)C(F)(F)F)cc2CC)cc1C(F)(F)F` [Compound 5-107] yielded an insecticidal activity of 100%. Consider `CCC(=O)NCc1ccc(C(=O)Nc2c(C)cc(C(F)(C(F)(F)F)C(F)(F)F)cc2CC)cc1I` [Compound 5-191], for which the insecticidal activity came to 100%.

For the compound `CCc1cc(C(F)(C(F)(F)F)C(F)(F)F)cc(C)c1NC(=O)c1ccc(C#N)cc1F` [Compound I-3], the insecticidal activity worked out at 100%. On the same count and under the same terms, as for `CCc1cc(C(F)(C(F)(F)F)C(F)(F)F)cc(C)c1NC(=O)c1ccc(CNC(=O)CC2CC2)c([N+](=O)[O-])c1` [Compound 5-117], the figure is 100%; as for `O=C(CC1CC1)NCc1ccc(C(=O)Nc2c(Cl)cc(C(F)(C(F)(F)F)C(F)(F)C(F)(F)F)cc2Cl)cc1` (centres unmarked) [Compound 5-325], 100%. For `CCc1cc(C(F)(C(F)(F)F)C(F)(F)Br)cc(C)c1NC(=O)c1ccc(CNC(=O)C2CC2)c(Cl)c1` (racemic) [Compound 5-318], the insecticidal activity amounted to 100%. The same measure, in the same setting: as for `CCc1cc(C(F)(C(F)(F)F)C(F)(F)F)cc(C)c1NC(=O)c1ccc(CNC(=O)CC(F)(F)F)cn1` [Compound 7-6], the figure is 100%; as for `CCc1cc(C(F)(C(F)(F)F)C(F)(F)F)cc(C)c1NC(=O)c1ccc(CNC(C)=O)c(C)c1` [Compound 5-99], 100%. The compound `CCc1cc(C(F)(C(F)(F)F)C(F)(F)F)cc(C)c1NC(=O)c1ccc(CNC(=O)CC2CC2)c2ccccc12` [Compound 6-5] came in with an insecticidal activity of 100%. Consider `Cc1cc(C(F)(C(F)(F)F)C(F)(F)F)cc(Cl)c1NC(=O)c1ccc(CNC(=O)CC(F)(F)F)cc1` [Compound 5-335], for which the insecticidal activity is listed as 100%. Still for that read-out and setting: as for `Cc1cc(C(F)(C(F)(F)F)C(F)(F)F)cc(C)c1NC(=O)c1ccc(CNC(=O)c2cccnc2Cl)cc1F` [Compound 5-182], the figure is 100%; as for `CCc1cc(C(F)(C(F)(F)F)C(F)(F)F)cc(C)c1NC(=O)c1ccc(CNC(=O)C2CC2)c(F)c1F` [Compound 5-53], 100%; as for `CCc1cc(C(F)(C(F)(F)F)C(F)(F)F)cc(C)c1NC(=O)c1ccc(CNC(C)=O)c2ccccc12` [Compound 6-2], 100%. On the same count and under the same terms, next, `Cc1cc(C(F)(C(F)(F)F)C(F)(F)F)cc(Cl)c1NC(=O)c1ccc(CNC(=O)CC2CC2)cc1` [Compound 5-336]: 100%; `CCC(=O)NCc1ccc(C(=O)Nc2c(C)cc(C(F)(C(F)(F)F)C(F)(F)F)cc2CC)cc1[N+](=O)[O-]` [Compound 5-115]: 100%; `CCc1cc(C(F)(C(F)(F)F)C(F)(F)F)cc(C)c1NC(=O)c1ccc(CNC(=O)CC2CC2)cc1` [Compound 5-31]: 100%.

Regarding `CCc1cc(C(F)(C(F)(F)F)C(F)(F)F)cc(C)c1NC(=O)c1ccc(CNC(C)=O)c(I)c1` [Compound 5-190], the insecticidal activity amounted to 100%. As to `CCc1cc(C(F)(C(F)(F)F)C(F)(F)F)cc(C)c1NC(=O)c1ccc(CNC(=O)CC(F)(F)F)c(F)c1F` [Compound 5-55], the insecticidal activity amounted to 100%.

`CCc1cc(C(F)(C(F)(F)F)C(F)(F)C(F)(F)F)cc(C)c1NC(=O)c1ccc(CNC(=O)CC2CC2)c(Br)c1` (centres unmarked) [Compound 5-160]: the insecticidal activity was 100%. In turn, `CCc1cc(C(F)(C(F)(F)F)C(F)(F)F)cc(C)c1NC(=O)c1ccc2c(c1)CCCC2NC(=O)CC(F)(F)F` (centres unmarked) [Compound 11-6] displayed an insecticidal activity of 100%. `CCc1cc(C(F)(C(F)(F)F)C(F)(F)F)cc(C)c1NC(=O)c1ccc(C(C)NC(=O)CC2CC2)cc1` (centres unmarked) [Compound 9-5] came in with an insecticidal activity of 100%. Consider `O=C(CC(F)(F)F)NCc1ccc(C(=O)Nc2c(Cl)cc(C(F)(C(F)(F)F)C(F)(F)F)cc2Cl)cc1Cl` [Compound 5-232], for which the insecticidal activity came out at 100%. Turning to `CCc1cc(C(F)(C(F)(F)F)C(F)(F)C(F)(F)F)cc(C)c1NC(=O)c1ccc(CN)c(Cl)c1` (centres unmarked) [Compound 5-149], the insecticidal activity is listed as 100%. In turn, `CCc1cc(C(F)(C(F)(F)F)C(F)(F)F)cc(C)c1NC(=O)c1ccc(CNC(=O)CC(F)(F)F)cc1Cl` [Compound 5-68] registered an insecticidal activity of 100%.

The compound `CCC(=O)NCc1ccc(C(=O)Nc2c(C)cc(C(F)(C(F)(F)F)C(F)(F)F)cc2CC)c2ccccc12` [Compound 6-3] registered an insecticidal activity of 100%. `CCc1cc(C(F)(C(F)(F)F)C(F)(F)C(F)(F)F)cc(C)c1NC(=O)c1ccc(CNC(=O)CC2CC2)c(I)c1` (centres unmarked) [Compound 5-197]: the insecticidal activity came out at 100%.

In the case of `CC(=O)NCc1ccc(C(=O)Nc2c(Cl)cc(C(F)(C(F)(F)F)C(F)(F)C(F)(F)F)cc2Cl)cc1` (centres unmarked) [Compound 5-322], the insecticidal activity was 100%. On the same count and under the same terms, as for `CCC(=O)NCc1ccc(C(=O)Nc2c(C)cc(C(F)(C(F)(F)F)C(F)(F)F)cc2CC)c(Cl)c1` [Compound 5-66], the figure is 100%; as for `CCc1cc(C(F)(C(F)(F)F)C(F)(F)F)cc(C)c1NC(=O)c1ccc(CNC(=O)C2CC2)c([N+](=O)[O-])c1` [Compound 5-116], 100%; as for `CCC(=O)NCc1ccc(C(=O)Nc2c(C)cc(C(F)(C(F)(F)F)C(F)(F)F)cc2CC)c(F)c1F` [Compound 5-52], 100%. `CCc1cc(C(F)(C(F)(F)F)C(F)(F)F)cc(C)c1NC(=O)c1ccc(CNC(=O)CC(F)(F)F)nc1` [Compound 8-6]: the insecticidal activity worked out at 100%.

In the case of `O=C(CC1CC1)NCc1ccc(C(=O)Nc2c(Cl)cc(C(F)(C(F)(F)F)C(F)(F)C(F)(F)F)cc2Cl)cc1Cl` (centres unmarked) [Compound 5-330], the insecticidal activity worked out at 100%. Regarding `CC(C)(C)OC(=O)NCc1ccc(C(=O)Nc2c(Cl)cc(C(F)(C(F)(F)F)C(F)(F)C(F)(F)F)cc2Cl)cc1Cl` (centres unmarked) [Compound 5-329], the insecticidal activity is reported as 100%. With `CCc1cc(C(F)(C(F)(F)F)C(F)(F)F)cc(C)c1NC(=O)c1ccc(-n2cncn2)c(CNC(=O)OC)c1` [Compound 12-5], the insecticidal activity is on record as 100%.

The compound `Cc1cc(C(F)(C(F)(F)F)C(F)(F)F)cc(C)c1NC(=O)c1ccc(CNC(=O)CC(F)(F)F)cc1` [Compound 5-7] registered an insecticidal activity of 100%. In turn, `Cc1cc(C(F)(C(F)(F)F)C(F)(F)F)cc(C)c1NC(=O)c1ccc(CNC(=O)c2cccnc2F)cc1` [Compound 5-19] displayed an insecticidal activity of 100%. In turn, `CCC(=O)NCc1ccc(C(=O)Nc2c(C)cc(C(F)(C(F)(F)F)C(F)(F)C(F)(F)F)cc2CC)cc1I` (centres unmarked) [Compound 5-195] yielded an insecticidal activity of 100%. In turn, `CCc1cc(C(F)(C(F)(F)F)C(F)(F)F)cc(C)c1NC(=O)c1ccc(CN(C)C(=O)c2cccnc2Cl)cc1` [Compound 5-189] returned an insecticidal activity of 100%. In turn, `Cc1cc(C(F)(C(F)(F)F)C(F)(F)F)cc(Cl)c1NC(=O)c1ccc(C#N)cc1` [Compound I-28] yielded an insecticidal activity of 100%.

Take `Cc1cc(C(F)(C(F)(F)F)C(F)(F)F)cc(OC(F)F)c1NC(=O)c1ccc(CN)c(Cl)c1` [Compound 5-293]: the insecticidal activity was 100%. In turn, `CCc1cc(C(F)(C(F)(F)F)C(F)(F)F)cc(C)c1NC(=O)c1ccc(CN)c(Cl)c1` [Compound 5-76] displayed an insecticidal activity of 100%. Compound `CCC(=O)NCc1cc(C(=O)Nc2c(C)cc(C(F)(C(F)(F)F)C(F)(F)F)cc2CC)ccc1-n1cncn1` [Compound 12-4] returned an insecticidal activity of 100%. Turning to `CCc1cc(C(F)(C(F)(F)F)C(F)(F)F)cc(C)c1NC(=O)c1ccc(CNC(=O)CC2CC2)c(F)c1F` [Compound 5-54], the insecticidal activity came out at 100%. Compound `CCc1cc(C(F)(C(F)(F)F)C(F)(F)F)cc(C)c1NC(=O)c1ccc(CNC(=O)c2ccc(Cl)cc2)cc1` [Compound 5-39] showed an insecticidal activity of 100%.

Regarding `CCc1cc(C(F)(C(F)(F)F)C(F)(F)F)cc(C)c1NC(=O)c1ccc2c(c1)CCC2NC(C)=O` (centres unmarked) [Compound 10-2, 1-acetamide-N-[2-ethyl-4-(1,1,1,2,3,3,3-heptafluoropropan-2-yl)-6-methylphenyl]indane-5-carboxamide], the pest or weed control at 100 ppm came out at 100%. Turning to `Cc1cc(C(F)(C(F)(F)F)C(F)(F)F)cc(C)c1NC(=O)c1ccc(CNC(=O)CC2CC2)cc1F` [Compound 5-24], the insecticidal activity is on record as 100%.

On to `CCc1cc(C(F)(C(F)(F)F)C(F)(F)F)cc(C)c1NC(=O)c1ccc(CNC(=O)C2CC2)c2ccccc12` [Compound 6-4], for which the insecticidal activity amounted to 100%. `CCc1cc(C(F)(C(F)(F)F)C(F)(F)F)cc(C)c1NC(=O)c1ccc(-n2cncn2)c(CNC(C)=O)c1` [Compound 12-3, 3-(acetamidemethyl)-N-[2-ethyl-4-(1,1,1,2,3,3,3-heptafluoropropan-2-yl)-6-methylphenyl]-4-(1H-1,2,4-triazol-1-yl)benzamide]: the pest or weed control at 100 ppm came out at 100%. Consider `Cc1cc(C#N)ccc1C(=O)Nc1c(Cl)cc(C(F)(C(F)(F)F)C(F)(F)F)cc1Cl` [Compound I-25], for which the insecticidal activity came to 100%. The same measure, in the same setting: next, `CCc1cc(C(F)(C(F)(F)F)C(F)(F)C(F)(F)F)cc(C)c1NC(=O)c1ccc(CNC(=O)C2CC2)c(I)c1` (centres unmarked) [Compound 5-196]: 100%.

The values are drawn from patent US9227923B2, “Pesticidal carboxamides” (Bayer Intellectual Property GmbH, priority 2009, dated 2016).
